pIC50: −log10 of the molar value. Where two headings read alike, the source gives them in different places.

The test has as its target T1, Pancreatic lipase (from porcine pancreas, type II) (Sus scrofa, UniProt P00591).
T1 construct: Pancreatic lipase (from porcine pancreas, type II, 100-500 units/mg, L3126); purchased Sigma-Aldrich L3126; host or cells: porcine pancreas (tissue-derived)
T1 sequence (P00591 1-450): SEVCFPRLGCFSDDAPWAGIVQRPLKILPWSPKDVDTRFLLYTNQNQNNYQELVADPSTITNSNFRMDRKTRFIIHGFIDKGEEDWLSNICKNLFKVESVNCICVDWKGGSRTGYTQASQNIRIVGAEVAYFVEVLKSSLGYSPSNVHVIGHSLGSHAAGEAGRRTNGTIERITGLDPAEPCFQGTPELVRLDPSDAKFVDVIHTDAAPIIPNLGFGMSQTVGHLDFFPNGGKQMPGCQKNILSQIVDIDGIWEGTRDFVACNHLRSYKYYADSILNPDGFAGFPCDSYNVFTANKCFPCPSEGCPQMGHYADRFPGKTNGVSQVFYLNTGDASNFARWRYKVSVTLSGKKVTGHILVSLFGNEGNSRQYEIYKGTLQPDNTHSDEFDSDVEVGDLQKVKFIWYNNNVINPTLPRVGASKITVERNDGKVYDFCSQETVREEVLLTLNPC
Nature of the test: Pancreatic lipase (PL) inhibitory activity assay using pNPP as substrate. The class given is biochemical. Conditions: for IC50: read-out: IC50 (µg/mL) (converted). How it is done: Pancreatic Lipase Activity Assay Preparation The pancreatic lipase activity assay uses 4-nitrophenyl palmitate (pNPP) as colorimetric lipase substrate. […] Tris-Borate-EDTA buffer (10X, pH 8.3, PB 1040) was purchased from Vivantis Technologies (Selangor, Malaysia).
Buffer solution was prepared by diluting the 10X Tris-Borate-EDTA buffer (890 mM) into 50 mM solution, followed by addition of 0.35% (m/v) sodium deoxycholate, and adjust pH to 8.3. pNPP solution was prepared by adding pNPP into isopropanol to make a 1.5 mg/mL solution. Both solutions were stored in fridge (4° C.) for further tests. PL solution was prepared by suspending PL in 4° C. buffer solution (10 mg/mL), shaking by vortex mixer for 2 min, and centrifuging at 4° C., 6000 rpm for 5 min. The supernatant was divided into several 0.5 mL aliquots in 0.6 mL PP centrifuge tubes and stored in freezer (-18° C.) for further tests.
High-throughput Pancreatic Lipase Activity Assay. For each sample, 20 µL of extract was transferred into a 0.6 mL PP centrifuge tube, dry up at room temperature for 10 min, followed by adding 300 µL buffer solution. The mixture was sonicated thoroughly in water bath sonicator, 150 µL of the sample was transferred onto a 96-well microplate (Corning, clear polystyrene, USA), and incubated in microplate reader (Synergy HT, Biotek Instruments Inc., Winooski, VT, USA) at 37° C. for 15 min. Meanwhile, frozen lipase solution was thawed in room temperature, 10 µL of which was added into the well, and incubate at 37° C. for another 10 min. Finally, the reaction starts by adding 10 µL pNPP solution into each well. The reading wavelength was fixed at 410 nm, 3 s shaking before each reading, and a 1-hour kinetic data was obtained by a reading interval of 20 or 60 seconds. Negative control group (blank) was prepared by adding 20 µL pure solvent instead of extract in the first step.
The tendency of readings in the first 3 minutes were regarded as linear growth, and the slope was calculated by linear regression in Excel (Office 2016, Microsoft, USA). The inhibition activity of each sample is calculated in percentage inhibition by Eq. 1.
Comparator PL Inhibitory Assay (pNPP as substrate). p-Nitrophenyl palmitate (pNPP) is a synthetic chemical probe widely used in PL inhibitory assay. Long chain fatty acid (palmitic acid) and chromatic indicator (p-nitrophenol) are linked by an ester bond, and the molecule works as a substrate of PL. Hydrolyzed by PL in buffer solution, pNPP molecules release the indicators, and a yellowish color is presented. PL activity is indicated by the speed of color gain by time, and the color could be measured by optical density at 410 nm by a spectrometer. […] According to Michaelis-Menten equation, PL activity could be presented by the initial rate of the reaction. […] The inhibition is calculated percentage by Eq.1, and a dose-response curve could be plotted according to PL inhibition under different inhibitor concentrations (FIG. 1B). Fitting with proper model, IC50 could be calculated by plugging 50% into the fitted formula.

Setting [1] is: isolated resin glycosides of sweet potato tuber, read-out: PL inhibition IC50.
Setting [2] is: lipase inhibition, resin glycosides in fraction F5.1.23.34 of sweet potato tuber, read-out: IC50.
The mark [3] stands for this setting: lipase inhibition, resin glycosides in fraction F5.1.23.34 of sweet potato tuber.

Consider `CCCCC[C@H]1CCCCCCCCCC(=O)O[C@H]2[C@H](O[C@H]3[C@H](O1)O[C@H](C)[C@H](O)[C@@H]3O)O[C@@H](C)[C@H](O[C@@H]1O[C@@H](C)[C@H](O[C@@H]3O[C@@H](C)[C@H](OC(=O)[C@@H](C)CC)[C@@H](OC(=O)/C=C/c4ccccc4)[C@H]3O)[C@@H](O[C@@H]3O[C@@H](C)[C@H](O)[C@@H](O)[C@H]3O)[C@H]1OC(=O)[C@@H](C)CC)[C@H]2O` [Batatoside III], for which the pIC50 is, setting by setting: under setting [1], 5.17 to 5.31; under setting [2], 5.31. For the same molecule, the IC50 under setting [3] is 4.91 µM.

As for `CCCCCC1CCCCCCCCCC(=O)OC2C(O)C(OC(C)C2OC2OC(C)C(OC3OC(C)C(OC(=O)C(C)CC)C(OC(=O)C=Cc4ccccc4)C3O)C(OC3OC(C)C(O)C(O)C3O)C2OC(=O)C(C)CC)OC2C(O1)OC(C)C(O)C2O` (stereo not shown) [Pescaprein XXVII], the negative-log IC50 (pIC50) under setting [1] was 5.17 to 5.31 and the pIC50 under setting [2] was 5.25. Further, the IC50 under setting [3] is 5.61 µM.

In the case of Batataoside I, under setting [3], the “IC50 (µg/mL)” value was 8.5 µg/mL. Also, the negative-log IC50 (pIC50) under setting [2] is 5.17.

For the molecule Batataoside II, under setting [3], the “IC50 (µg/mL)” value came out at 7.6 µg/mL. Also, the negative-log IC50 (pIC50) under setting [2] was 5.22.

The record behind these values is patent US20230310532A1, “FOOD EXTRACTS, METHODS OF EXTRACTION AND COMPOSITIONS THEREOF” (National University of Singapore, priority 2020, published 2023).
